Reference: PMC3660081 (Annals of Oncology, 2013)
Entries after “also recorded” stand apart in the source; their conditions may differ. Blank lines part the entries; values can stand above or below the compound they belong to.

Legend:
[1] = cited from earlier work
[2] = Drug-related treatment-emergent adverse events; format: in vivo, human; details: for Administration interrupted (omitted) / Dose reduction due to adverse events: % of administered cycles
UGT1A1 = details: cited from earlier work
[3] = system: heavily pretreated colorectal cancer; details: single-agent regorafenib; cited from earlier work
[4] = system: colorectal cancer after progression on standard therapy; details: versus best supportive care 5.0 months; cited from earlier work
UGT1A9 = details: cited from earlier work
[5] = Pharmacokinetics of chemotherapy components before; details: for Effect of regorafenib on pharmacokinetics/exposure, in words: cycle 2 versus cycle 1; for Cmax in cycle 2 versus cycle 1, in words: following regorafenib dosing
[6] = after versus before regorafenib dosing
[7] = Cycle 1 day 1, before regorafenib dosing
[8] = Cycle 2 day 1, after regorafenib dosing

Compound: NC(=O)c1cc(Oc2ccc(NC(=O)Nc3ccc(Cl)c(C(F)(F)F)c3)c(F)c2)cc[n+]1[O-] [M5]
- Half-life [1]: 51 to 64 h

Compound: CNC(=O)c1cc(Oc2ccc(NC(=O)Nc3ccc(Cl)c(C(F)(F)F)c3)c(F)c2)cc[n+]1[O-] [M2]
- Half-life [1]: 26 to 28 h

Compound: CNC(=O)c1cc(Oc2ccc(NC(=O)Nc3ccc(Cl)c(C(F)(F)F)c3)c(F)c2)ccn1 [Regorafenib]
- Tolerability in combination with chemotherapy (FOLFOX or FOLFIRI), in words ([2]; regorafenib 160 mg once daily days 4–10 and 18–24): acceptable tolerability
- Inhibition of UGT1A1, in words (UGT1A1): strong inhibitor
- Half-life [1]: 25 h
- Stable disease [3]: 19 of 27
- Overall survival (OS) [4]: 6.4 months
- Inhibition of UGT1A9, in words (UGT1A9): strong inhibitor

Compound: O=C1[O][Pt]2([NH][C@@H]3CCCC[C@H]3[NH]2)[O]C1=O [Oxaliplatin, oxaliplatin]
- Administration interrupted (omitted) [2]: 11%
- Dose reduction due to adverse events [2]: 11%
- Effect of regorafenib on pharmacokinetics/exposure, in words [5]: no significant effect

- AUC ratio (90% CI) Cycle 2/Cycle 1 [5, 6]: 1.28
- Cmax ratio (90% CI) Cycle 2/Cycle 1 [5, 6]: 1.22 (0.80–1.85)
- Cmax in cycle 2 versus cycle 1, in words [5]: only slightly increased
- AUC ([5]; human, in vivo, geometric mean, Cycle 1 day 1, before regorafenib dosing): 10700 ng·h/mL
- AUC ([5]; human, in vivo, geometric mean, Cycle 2 day 1, after regorafenib dosing): 13800 ng·h/mL
- Cmax ([5]; human, in vivo, Cmax, geometric mean, Cycle 1 day 1, before regorafenib dosing): 1900 ng/mL
Compound: CCc1c2c(nc3ccc(OC(=O)N4CCC(N5CCCCC5)CC4)cc13)-c1cc3c(c(=O)n1C2)COC(=O)[C@]3(O)CC [Irinotecan, irinotecan]
- Administration interrupted (omitted) [2]: 5%
- Dose reduction due to adverse events [2]: 12%
- Effect of regorafenib on pharmacokinetics/exposure, in words [5]: increased exposure; also recorded: increased significantly

- Cmax ratio (90% CI) Cycle 2/Cycle 1 ([5]; FOLFIRI regimen): 0.92 (0.06–13.9)
- t½, geometric mean ([5]; FOLFIRI regimen, Cycle 1, before regorafenib dosing): 0.2 H
- AUC ratio (90% CI) Cycle 2/Cycle 1 ([5]; FOLFOX regimen): 1.06 (0.69–1.64)
- Cmax ratio (90% CI) Cycle 2/Cycle 1 ([5]; FOLFOX regimen): 0.89 (0.50–1.61)
- t½, geometric mean ([5]; FOLFOX regimen, Cycle 1, before regorafenib dosing): 0.4 H
- t½, geometric mean ([5]; FOLFOX regimen, Cycle 2, after regorafenib dosing): 2.4 H
- Effect of regorafenib on pharmacokinetics/exposure, in words [5]: no significant effect
Compound: O=c1[nH]cc(F)c(=O)[nH]1 [5-fluorouracil]
- Administration interrupted (omitted) [2]: 8%
- Dose reduction due to adverse events [2]: 18%

Compound: CCc1c2c(nc3ccc(O)cc13)-c1cc3c(c(=O)n1C2)COC(=O)[C@]3(O)CC [SN-38]
- AUC, geometric mean [5, 7]: 400 ng·h/mL
- t½, geometric mean [5, 7]: 16.8 h
- AUC, geometric mean [5, 8]: 500 ng·h/mL
- t½, geometric mean [5, 8]: 19.3 h
- AUC ratio (90% CI) Cycle 2/Cycle 1 [5, 6]: 1.44
- Cmax ratio (90% CI) Cycle 2/Cycle 1 [5, 6]: 0.91 (0.55–1.50)
- Effect of regorafenib on pharmacokinetics/exposure, in words [5]: increased exposure; also recorded: increased significantly
- Cmax in cycle 2 versus cycle 1, in words [5]: unchanged
